Results published in patent US12629374B2, “Antimalarial agents” (Merck Sharp & Dohme LLC, priority 2020, dated 2026).
Counter-ions that a name gives are not always drawn. Like-named read-outs stand apart in the source and are kept apart here.

Test system: ring stage parasites
Experiment: Parasite growth potency assay, 72 hours, LDH readout
Type: cell-based
Conditions: parasite growth measured by LDH assay after 72 hours at 37° C., 0.7% rings, 2% haematocrit, read-out: EC50
Description: The parasite stock was maintained at 4% haematocrit in RPMI-Hepes media buffered with sodium bicarbonate and supplemented with 5% heat inactivated human serum and 0.5% albumax.
On the day of assay set up, a blood smear of the parasite culture was Giemsa stained and counted. The parasitemia was adjusted to 0.7% rings and the haematocrit was diluted to 2% in RPMI-Hepes media buffered with sodium bicarbonate and supplemented with 5% heat inactivated human serum and 0.5% albumax. 30 ul of diluted parasites are then added into 10 ul of media+compound in pre-prepared Greiner TC assay plates. Parasite assay plates were placed in gassed humidified boxes in single layer and allowed to incubate at 37° C. for 72 hours. After 72 hours growth, assay plates are sealed with parafilm and frozen flat, in single file at −80° C. overnight. On the following day, assay plates are allowed to thaw at room temperature for 4 hours to which an LDH assay is performed to measure parasite growth.

For `CCC[C@H](c1cccc(C(=O)N[C@H]2c3ccccc3CC2(C)O)c1)N1C(=N)NC(CC)(CC)CC1=O` (single isomer, unassigned) [Example 122C], the EC50 was 57.3 nM.

Work on `CCC1(CC)CC(=O)N(Cc2cc(C(=O)NC3CC(C)(C)Oc4ccccc43)ccn2)C(=N)N1` (centres unmarked) [Example 80, [1-[[4-[(2,2-dimethylchroman-4-yl)carbamoyl]pyridin-1-ium-2-yl]methyl]-4,4-diethyl-6-oxo-hexahydropyrimidin-2-ylidene]ammonium; 2,2,2-trifluoroacetate] yielded an EC50 (72 h) of 1.7 nM.

Work on `CCC1(CC)NC(=N)N([C@H](CCOC)c2cccc(C(=O)N[C@@H]3c4ccccc4C[C@H]3O)c2)C(=O)C1C` (stereo partly drawn) [Example 227A, 3-[(1R)-1-(4,4-diethyl-2-imino-5-methyl-6-oxo-hexahydropyrimidin-1-yl)-3-methoxy-propyl]-N-[(1R,2R)-2-hydroxyindan-1-yl]benzamide] yielded an EC50 (72 h) of 1.25 nM.

Compound `CCC1(CC)CC(=O)N(Cc2cc(C(=O)N[C@@H]3c4ccccc4C[C@H]3O)ccn2)C(=N)N1` [Example 38, [4,4-diethyl-1-[[4-[[(1R,2R)-2-hydroxyindan-1-yl]carbamoyl]-2-pyridyl]methyl]-6-oxo-hexahydropyrimidin-2-ylidene]ammonium; 2,2,2-trifluoroacetate] has an EC50 (72 h) of 31.3 nM.

Compound `CCC1(CC)CC(=O)N([C@H](CCOCCOCCOCCN=[N+]=[N-])c2cccc(C(=O)N[C@H]3CC(C)(C)Oc4ccccc43)c2)C(=N)N1` [Example 201, [1-[(1R)-3-[2-[2-(2-azidoethoxy)ethoxy]ethoxy]-1-[3-[[(4S)-2,2-dimethylchroman-4-yl]carbamoyl]phenyl]propyl]-4,4-diethyl-6-oxo-hexahydropyrimidin-2-ylidene]ammonium; 2,2,2-trifluoroacetate] has an EC50 (72 h) of 1.2 nM.

For `CCC1(CC)CC(=O)N([C@H](CCOC)c2cccc(C(=O)N[C@@H]3c4ccccc4OC(C)(C)C3(C)O)c2)C(=N)N1` (stereo partly drawn) [Example 203, 3-[(1R)-1-(4,4-diethyl-2-imino-6-oxo-hexahydropyrimidin-1-yl)-3-methoxy-propyl]-N-(3-hydroxy-2,2,3-trimethyl-chroman-4-yl)benzamide], the EC50 (72 h) was 0.3 nM.

In the case of `CCC1(CC)CC(=O)N(Cc2cc(C#N)cc(C(=O)N[C@@H]3CC(C)(C)Oc4ccccc43)c2)C(=N)N1` (stereo in doubt) [Example 89A, [1-[[3-cyano-5-[(2,2-dimethylchroman-4-yl)carbamoyl]phenyl]methyl]-4,4-diethyl-6-oxo-hexahydropyrimidin-2-ylidene]ammonium; 2,2,2-trifluoroacetate], the EC50 (72 h) is reported as 9.8 nM.

For `N=C1N[C@@](CC2CC2)(c2ccccc2)CC(=O)N1Cc1cc(F)cc(C(=O)N[C@@H]2CCOc3ccccc32)c1` [Example 5B, [(4R)-1-[[3-[[(4R)-chroman-4-yl]carbamoyl]-5-fluoro-phenyl]methyl]-4-(cyclopropylmethyl)-6-oxo-4-phenyl-hexahydropyrimidin-2-ylidene]ammonium; 2,2,2-trifluoroacetate], the EC50 (72 h) was 57.4 nM.

`CCC1(CC)CC(=O)N(Cc2cccc(C(=O)NC3CC(C)(C)Oc4ccccc43)c2)C(=N)N1` (single isomer, unassigned) [Example 51A, [1-[[3-[(2,2-dimethylchroman-4-yl)carbamoyl]phenyl]methyl]-4,4-diethyl-6-oxo-hexahydropyrimidin-2-ylidene]ammonium; 2,2,2-trifluoroacetate] showed an EC50 (trifluoroacetate) of 91.9 nM.

In the case of `CCC[C@H](c1cccc(C(=O)N[C@@H]2c3ccccc3C[C@H]2O)c1)N1C(=N)NC(CC)(CC)CC1=O` [Example 102, [4,4-diethyl-1-[(1R)-1-[3-[[(1R,2R)-2-hydroxyindan-1-yl]carbamoyl]phenyl]butyl]-6-oxo-hexahydropyrimidin-2-ylidene]ammonium; 2,2,2-trifluoroacetate], the EC50 (72 h) is reported as 0.5 nM.

`CCC1(CC)CC(=O)N([C@H](C)c2cccc(C(=O)N[C@@H]3c4ccccc4C[C@]3(C)O)c2)C(=N)N1` [Example 192B, 3-[(1R)-1-(4,4-diethyl-2-imino-6-oxo-hexahydropyrimidin-1-yl)ethyl]-N-[(1R,2S)-2-hydroxy-2-methyl-indan-1-yl]benzamide] gave an EC50 of 2.7 nM.

`CC(C)[C@]1(C)CC(=O)N(Cc2cccc(C(=O)N[C@@H]3c4ccccc4C[C@H]3O)c2)C(=N)N1` [Example 10, [(4S)-1-[[3-[[(1R,2R)-2-hydroxyindan-1-yl]carbamoyl]phenyl]methyl]-4-isopropyl-4-methyl-6-oxo-hexahydropyrimidin-2-ylidene]ammonium; 2,2,2-trifluoroacetate] gave an EC50 (72 h) of 7.9 nM.

`CCC1(CC)CC(=O)N(Cc2cccc(C(=O)N[C@@H]3c4ccccc4OC3(C)C)c2)C(=N)N1` (stereo in doubt) [Example 186, [1-[[3-[(2,2-dimethyl-3H-benzofuran-3-yl)carbamoyl]phenyl]methyl]-4,4-diethyl-6-oxo-hexahydropyrimidin-2-ylidene]ammonium; 2,2,2-trifluoroacetate] gave an EC50 (72 h) of 10.9 nM.

`CCC1(CC)CC(=O)N([C@@H](CCOC)c2cccc(C(=O)NC3CC(C)(C)Oc4ccccc43)c2)C(=N)N1` (stereo in doubt) [Example 72A, [1-[1-[3-[(2,2-dimethylchroman-4-yl)carbamoyl]phenyl]-3-methoxy-propyl]-4,4-diethyl-6-oxo-hexahydropyrimidin-2-ylidene]ammonium; 2,2,2-trifluoroacetate] gave an EC50 (72 h) of 25.5 nM.

Work on `CCC[C@H](c1cccc(C(=O)NC2CC(C)(C)Oc3ccccc32)c1)N1C(=N)NC(CC)(CC)CC1=O` (stereo in doubt) [Example 62A, [1-[1-[3-[(2,2-dimethylchroman-4-yl)carbamoyl]phenyl]butyl]-4,4-diethyl-6-oxo-hexahydropyrimidin-2-ylidene]ammonium; 2,2,2-trifluoroacetate] yielded an EC50 (72 h) of 0.4 nM.

For `CCC1(CC)CC(=O)N([C@@H](COCCOC)c2cccc(C(=O)N[C@H]3CC(C)(C)Oc4ccccc43)c2)C(=N)N1` (single isomer, unassigned) [Example 112B, trifluoroacetate], the EC50 (72 h) was 59.6 nM.

Compound `CCC1(CC)CC(=O)N(Cc2cccc(C(=O)N[C@@H]3c4ccccc4OCC3(C)O)c2)C(=N)N1` (stereo in doubt) [Example 131A, 3-[(4,4-diethyl-2-imino-6-oxo-hexahydropyrimidin-1-yl)methyl]-N-(3-hydroxy-3-methyl-chroman-4-yl)benzamide] has an EC50 (72 h) of 6.6 nM.

With `COCC[C@H](c1cccc(C(=O)NC2c3cc(F)ccc3OC(C)(C)C2(C)O)c1)N1C(=N)NC(C)(C)CC1=O` (stereo partly drawn) [Example 235, N-(6-fluoro-3-hydroxy-2,2,3-trimethyl-chroman-4-yl)-3-[(1R)-1-(2-imino-4,4-dimethyl-6-oxo-hexahydropyrimidin-1-yl)-3-methoxy-propyl]benzamide] the EC50 (72 h) was 0.32 nM.

`CCC1(CC)CC(=O)N(C(CC(O)C(F)(F)F)c2cccc(C(=O)N[C@@H]3c4ccccc4C[C@H]3O)c2)C(=N)N1` (single isomer, unassigned) [Example 236A] was tested, and the EC50 was 55 nM.

For `CCC1(CC)CC(=O)N([C@H](CCOC)c2cccc(C(=O)NC3c4ccccc4CCC3O)c2)C(=N)N1` (stereo partly drawn) [Example 226, 3-[(1R)-1-(4,4-diethyl-2-imino-6-oxo-hexahydropyrimidin-1-yl)-3-methoxy-propyl]-N-(2-hydroxytetralin-1-yl)benzamide], the EC50 (72 h) was 2.2 nM.

With `CCC[C@H](c1cccc(C(=O)N[C@H]2CCOc3ccccc32)c1)N1C(=N)N[C@@](CC2CC2)(c2ccccc2)CC1=O` [Example 64, [(4R)-1-[(1R)-1-[3-[[(4S)-chroman-4-yl]carbamoyl]phenyl]butyl]-4-(cyclopropylmethyl)-6-oxo-4-phenyl-hexahydropyrimidin-2-ylidene]ammonium; 2,2,2-trifluoroacetate] the EC50 (72 h) was 75.4 nM.

`CC#CCC[C@H](c1cccc(C(=O)N[C@H]2CC(C)(C)Oc3ccccc32)c1)N1C(=N)NC(CC)(CC)CC1=O` (stereo in doubt) [Example 83B, [1-[1-[3-[(2,2-dimethylchroman-4-yl)carbamoyl]phenyl]hex-4-ynyl]-4,4-diethyl-6-oxo-hexahydropyrimidin-2-ylidene]ammonium; 2,2,2-trifluoroacetate] gave an EC50 (72 h) of 0.4 nM.

`COCC[C@H](c1cncc(C(=O)N[C@@H]2c3ccccc3C[C@H]2O)c1)N1C(=N)N[C@](C)(C(C)C)CC1=O` [Example 130, [(4S)-1-[1-[5-[[(1R,2R)-2-hydroxyindan-1-yl]carbamoyl]pyridin-1-ium-3-yl]-3-methoxy-propyl]-4-isopropyl-4-methyl-6-oxo-hexahydropyrimidin-2-ylidene]ammonium; 2,2,2-trifluoroacetate] showed an EC50 (72 h) of 18.8 nM.

Work on `CC[C@H](c1cccc(C(=O)N[C@@H]2c3ccccc3C[C@H]2O)c1)N1C(=N)NC(CC)(CC)CC1=O` [Example 208, [4,4-diethyl-1-[1-[3-[[(1R,2R)-2-hydroxyindan-1-yl]carbamoyl]phenyl]propyl]-6-oxo-hexahydropyrimidin-2-ylidene]ammonium; 2,2,2-trifluoroacetate] yielded an EC50 (72 h) of 0.7 nM.

`CCC1(CC)CC(=O)N([C@H](CCOC)c2cc(F)cc(C(=O)N[C@H]3c4ccccc4CC3(C)O)c2)C(=N)N1` (single isomer, unassigned) [Example 144A, 3-[1-(4,4-diethyl-2-imino-6-oxo-hexahydropyrimidin-1-yl)-3-methoxy-propyl]-5-fluoro-N-(2-hydroxy-2-methyl-indan-1-yl)benzamide] gave an EC50 (72 h) of 81.6 nM.

Compound `CCC1(CC)CC(=O)N(Cc2cncc(C(=O)N[C@H]3CCOc4ccccc43)c2)C(=N)N1` [Example 24, [1-[[5-[[(4S)-chroman-4-yl]carbamoyl]-3-pyridyl]methyl]-4,4-diethyl-6-oxo-hexahydropyrimidin-2-ylidene]ammonium; 2,2,2-trifluoroacetate] has an EC50 (72 h) of 10.1 nM.
